Measurements reported in patent US20100285959A1, “HERBICIDAL MIXTURES” (priority 2006, published 2010).

How the values were obtained:
[1] = system: common lambsquarters (CHEAL); test: Test 3 field trial, emerged weeds before corn planting; type: in vivo, Chenopodium album; conditions: 68 DAA; Cpd 2 100, glyphosate 1540, paraquat 1150 g a.i./ha, alone or combined
Source text: Corn seeds (hybrid ‘Pioneer 33J56’) were planted in early spring season, 3.8 cm deep in a silt loam soil having 2.4% organic matter and a pH of 6. Plots were 6.1 m long by 2.7 m wide with rows spaced 91.4 cm apart. The field was managed using no-till practices. […] Compound 2 and paraquat treatments, alone and in combination, also included a surfactant. Glyphosate, alone and with Compound 2, included ammonium sulfate in the treatment mixture. […] The effects on the weeds in the treated plots and untreated control plots were recorded 30, 42, 46 and 68 days after application. Most of the weed species could not be evaluated at every timing. Corn response was not evaluated because the growth was highly variable depending on the efficacy of the weed control treatments. […] Results are the means of the three replicates.

[2] = system: sicklepod (CASOB); test: Test 12 field trial, preemergence; type: in vivo, Cassia obtusifolia; parameters: scale not given here; conditions: Cpd 2 or Cpd 1 62 g a.i./ha, Diuron 2000 g a.i./ha
Source text: In early-mid spring season, corn seeds (hybrid ‘Pioneer 3041’) were planted 5 cm deep and sugarcane nodes (variety RB-72.454) were planted 10 cm deep in separate plots in a clay soil having 2.6% organic matter and a pH of 5.6. Plots were 24 m long by 1.5 m wide with rows spaced 80 cm (corn) or 140 cm (sugarcane) apart. Corn seeds were spaced 15 cm apart and sugarcane nodes were spaced 10 cm apart within the rows. At the same time, weed seeds were broadcast over the surface of separate plots without a crop, one weed species per plot. The weed plots were rotary tilled to incorporate the weed seeds to a variety of depths. The field was managed using conventional tillage practices.

[3] = system: giant ragweed (AMBTR); test: Test 14 field trial, preemergence, growth as percent of control; type: in vivo, Ambrosia trifida
Source text: (§1) Corn seeds (hybrid ‘Pioneer 31G96 RR’) were planted in mid spring season, 3.8 cm deep in a clay loam soil having 2% organic matter and a pH of 6.6. Plots were 6.1 m long by 3.0 m wide with rows spaced 76 cm apart. Seeds were spaced 15 cm apart within the rows. The field was managed using conventional tillage practices. […] Yellow nutsedge was only evaluated 19 and 28 days after application, and ivyleaf morningglory could only be evaluated 28 days after application. […] Results are the means of the three replicates. This growth inhibition data was converted to results in the form of “plant growth as a percent of control plant growth” using the calculation “100 minus growth inhibition”. […] For “growth as a percent of control” data, Colby's Equation calculates the expected additive effect of herbicidal mixtures having two active ingredients as follows:
(§2) Ga+b=GaGb/100 • wherein Ga+b is the growth as a percent of control of plants treated with the mixture expected from additive contribution of the individual components, • Ga is the observed growth as a percent of control of plants treated with the first active ingredient at the same use rate as in the mixture, and • Gb is the observed growth as a percent of control of plants treated with the second active ingredient at the same use rate as in the mixture. For mixtures having three active ingredients, Colby's Equation to calculate the expected additive effect of herbicidal mixtures is as follows:
(§3) Ga+b+c=GaGbGc/10,000 • wherein Ga and Gb are as defined above and • Ga+b+c is the growth as a percent of control of plants treated with the mixture expected from additive contribution of the individual components, and • Gc is the observed growth as a percent of control of plants treated with the third active ingredient at the same use rate as in the mixture. When these two forms of Colby's Equation are used, if the observed effects on weeds are less than the expected values, the mixture is synergistic.

[4] = system: common dandelion (TAROF); test: Test 9 field trial, emerged weeds before corn planting; type: in vivo, Taraxacum officinale; conditions: g a.i./ha: Cpd 2 100, Glyphosate 1540, Paraquat 1150
Procedure: Corn seeds (hybrid ‘Pioneer 34M91 RR’) were planted in mid spring season, about 3.8 cm deep in a silty clay loam soil having a pH of 6.7. Plots were 9.1 m long by 3.0 m. The field was managed using no-till practices. […] Compound 2 and paraquat treatments, alone and in combination, also included a surfactant. Glyphosate, alone and with Compound 2, included ammonium sulfate in the treatment mixture. […] The effects on the weeds in the treated plots and untreated control plots were recorded 7, 14, 23, 30 and 57 days after application. Most of the weed species could not be evaluated at every timing. Corn response was only evaluated 57 days after application. […] Results are the means of the three replicates.

[5] = system: giant ragweed (AMBTR); test: Test 2 field trial, preemergence; type: in vivo, Ambrosia trifida; parameters: scale not given here
Source text: (§4) Corn seeds (hybrid ‘Pioneer 31G96’) were planted in mid spring season, 3.8 cm deep in a clay loam soil having 2% organic matter and a pH of 6.6. Plots were 6.1 m long by 3.0 m wide with rows spaced 76 cm apart. Seeds were spaced 15 cm apart within the rows. The field was managed using conventional tillage practices. […] A few of the weed species could not be evaluated at every timing. […] Results are the means of the three replicates.

[6] = system: velvetleaf (ABUTH); test: Test 14 field trial, preemergence, growth as percent of control; type: in vivo, Abutilon theophrasti
Source text: as §1, §2, §3

[7] = system: yellow nutsedge (CYPES); test: Test 2 field trial, preemergence; type: in vivo, Cyperus esculentus; parameters: scale not given here
Source text: as §4

[8] = 18 DAA, g a.i./ha: Cpd 2 25, Atrazine 250
[9] = 18 DAA, g a.i./ha: Cpd 2 50, Atrazine 500
[10] = 18 DAA, g a.i./ha: Cpd 2 75, Atrazine 750
[11] = 18 DAA, g a.i./ha: Cpd 2 100, Atrazine 1000
[12] = 18 DAA, g a.i./ha: Cpd 2 150, Atrazine 1500
[13] = 28 DAA, g a.i./ha: Cpd 2 25, Atrazine 250
[14] = 28 DAA, g a.i./ha: Cpd 2 50, Atrazine 500
[15] = 28 DAA, g a.i./ha: Cpd 2 75, Atrazine 750
[16] = 28 DAA, g a.i./ha: Cpd 2 100, Atrazine 1000
[17] = 28 DAA, g a.i./ha: Cpd 2 150, Atrazine 1500
[18] = 55 DAA, g a.i./ha: Cpd 2 25, Atrazine 250
[19] = 55 DAA, g a.i./ha: Cpd 2 50, Atrazine 500
[20] = 55 DAA, g a.i./ha: Cpd 2 75, Atrazine 750
[21] = 55 DAA, g a.i./ha: Cpd 2 100, Atrazine 1000
[22] = 55 DAA, g a.i./ha: Cpd 2 150, Atrazine 1500

COC(=O)c1nc(C2CC2)nc(N)c1Cl [Compound 2, methyl 6-amino-5-chloro-2-cyclopropyl-4-pyrimidinecarboxylate]
CHEAL Obs [1]: 100% | CASOB Obs ([2]; 15 DAA): 60 | CASOB Obs ([2]; 29 DAA): 80 | CASOB Obs ([2]; 48 DAA): 60 | CASOB Obs ([2]; 61 DAA): 50 | Obs growth % of control ([3]; 19 DAA, 75 g a.i./ha): 65% | Obs growth % of control ([3]; 19 DAA, 100 g a.i./ha): 73% | Obs growth % of control ([3]; 28 DAA, 75 g a.i./ha): 100% | Obs growth % of control ([3]; 28 DAA, 100 g a.i./ha): 23% | Obs growth % of control ([3]; 56 DAA, 75 g a.i./ha): 20% | Obs growth % of control ([3]; 56 DAA, 100 g a.i./ha): 18% | TAROF Obs ([4]; 7 DAA): 37% | TAROF Obs ([4]; 14 DAA): 38% | TAROF Obs ([4]; 23 DAA): 60% | TAROF Obs ([4]; 30 DAA): 65% | TAROF Obs ([4]; 57 DAA): 84% | AMBTR Obs [5, 8]: 10 | AMBTR Obs [5, 9]: 30 | AMBTR Obs [5, 10]: 10 | AMBTR Obs [5, 11]: 45 | AMBTR Obs [5, 12]: 65 | AMBTR Obs [5, 13]: 35 | AMBTR Obs [5, 14]: 30 | AMBTR Obs [5, 15]: 75 | AMBTR Obs [5, 16]: 70 | Obs growth % of control ([6]; 19 DAA, 75 g a.i./ha): 80% | Obs growth % of control ([6]; 19 DAA, 100 g a.i./ha): 60% | Obs growth % of control ([6]; 28 DAA, 75 g a.i./ha): 43% | Obs growth % of control ([6]; 28 DAA, 100 g a.i./ha): 22% | Obs growth % of control ([6]; 56 DAA, 75 g a.i./ha): 43% | Obs growth % of control ([6]; 56 DAA, 100 g a.i./ha): 30% | CYPES Obs [7, 8]: 12 | CYPES Obs [7, 9]: 18 | CYPES Obs [7, 10]: 22 | CYPES Obs [7, 11]: 25 | CYPES Obs [7, 12]: 30 | CYPES Obs [7, 13]: 0 | CYPES Obs [7, 14]: 0 | CYPES Obs [7, 15]: 0 | CYPES Obs [7, 16]: 0 | CYPES Obs [7, 17]: 0 | CYPES Obs [7, 18]: 0 | CYPES Obs [7, 19]: 0 | CYPES Obs [7, 20]: 0 | CYPES Obs [7, 21]: 0 | CYPES Obs [7, 22]: 10

O=C(O)CNCP(=O)(O)O [Glyphosate]
CHEAL Obs [1]: 0% | TAROF Obs ([4]; 7 DAA): 37% | TAROF Obs ([4]; 14 DAA): 62% | TAROF Obs ([4]; 23 DAA): 83% | TAROF Obs ([4]; 30 DAA): 90% | TAROF Obs ([4]; 57 DAA): 88%

Nc1nc(C2CC2)nc(C(=O)O)c1Cl [Compound 1, 6-amino-5-chloro-2-cyclopropyl-4-pyrimidinecarboxylic acid]
CASOB Obs ([2]; 15 DAA): 60 | CASOB Obs ([2]; 29 DAA): 70 | CASOB Obs ([2]; 48 DAA): 90 | CASOB Obs ([2]; 61 DAA): 90

CCNc1nc(Cl)nc(NC(C)C)n1 [Atrazine, atrazine, reference compound]
AMBTR Obs [5, 8]: 0 | AMBTR Obs [5, 9]: 30 | AMBTR Obs [5, 10]: 75 | AMBTR Obs [5, 11]: 20 | AMBTR Obs [5, 13]: 10 | AMBTR Obs [5, 14]: 5 | AMBTR Obs [5, 15]: 65 | CYPES Obs [7, 8]: 13 | CYPES Obs [7, 9]: 18 | CYPES Obs [7, 10]: 40 | CYPES Obs [7, 11]: 28 | CYPES Obs [7, 12]: 27 | CYPES Obs [7, 13]: 0 | CYPES Obs [7, 14]: 5 | CYPES Obs [7, 15]: 0 | CYPES Obs [7, 16]: 2 | CYPES Obs [7, 17]: 0 | CYPES Obs [7, 18]: 10 | CYPES Obs [7, 19]: 13 | CYPES Obs [7, 20]: 0 | CYPES Obs [7, 21]: 62 | CYPES Obs [7, 22]: 60

CCc1cccc(C)c1N(C(=O)CCl)[C@@H](C)COC [S-Metolachlor, S-metolachlor, reference compound]
Obs growth % of control ([3]; 19 DAA, 1870 g a.i./ha): 83% | Obs growth % of control ([3]; 28 DAA, 1870 g a.i./ha): 88% | Obs growth % of control ([3]; 56 DAA, 1870 g a.i./ha): 100% | Obs growth % of control ([6]; 19 DAA, 1870 g a.i./ha): 68% | Obs growth % of control ([6]; 28 DAA, 1870 g a.i./ha): 6% | Obs growth % of control ([6]; 56 DAA, 1870 g a.i./ha): 87%
